# Measured values published in patent US12274830B2, “Nitric oxide inhalation therapy for infants with bronchiolitis” (BEYOND AIR LTD, priority 2015, dated 2025).
# “Also recorded” adds a separate entry of the source.
# Tests used:
# [1] = test system: infants with acute bronchiolitis; test: Efficacy (LOS, time to SpO2 >=92%, time to clinical score <=5) of intermittent inhalations of 160 ppm NO in infants with acute bronchiolitis; format: in vivo, human
# Description: The study was a randomized, prospective, single center, double blind study of 2-11 month old hospitalized infants with acute bronchiolitis (FIG. 1).
# Subjects were screened within 4 hours of admission and randomized (1:1) to receive intermittent inhalations of 160 ppm NO along with standard treatment (NO group) or intermittent inhalations of 02/air mixture and standard treatment (control group), for a maximum of 25 inhalations.
# Secondary Outcome: Efficacy parameters: LOS calculated in hours, starting from first inhalation until: 1) Oxygen saturation (SpO2) ≥92% in room-air; 2) Clinical score ≤5 (15, 16) and; 3) blinded physician decision of “ready for discharge”.
# The secondary outcome were efficacy measures, including LOS, time to achieve ≥92% SaO2, and time to achieve a clinical score of ≤5. LOS in hours was defined as the time between first treatment until the time the infant was “ready for discharge”, defined as 1. Room air saturation of ≥92%; 2. Clinical severity symptom score (Table E1) of ≤5; 3. A clinical decision made by a blinded pediatrician.
# A severity symptom score, was used to determine the severity of each infant (Table E1). The score was comprised of four components: Respiratory rate, use of accessory muscles, wheezes and crackles on auscultation, and % room-air oxygen saturation (SpO2). Each component is given 0 to 3 points, with a total possible score of 12. Infants with a score of <6 were determined as mild and were not included in the study, while infants with a score of >10 were determined as very severe and were also excluded.
# Each patient was given 5 inhalations a day of NO (treatment group) or oxygen (control group), along with the standard supportive treatment, for a maximum of 25 inhalations (based on phase I safety data). Each participant was examined and evaluated using the severity symptom score by a blinded pediatricians every […] (9 am and 3 pm). When the room-air SpO2 reached 92%, and the score was ≤5, and the patient was assessed as “ready for discharge”, the treatment was discontinued.
# Post-hoc subgroup analyses of subjects with a LOS ≤24 hours and >24 hours were also conducted for the key post-hoc secondary endpoints, for the following reasons: based on preclinical studies, the anti-microbial treatment effect of NO is expected to take approximately 2.5 hours of exposure (i.e., 24 hours treatment). A third of the subjects were discharged after <24 hours in hospital. A longer LOS is expected to correlate with a higher disease severity, and therefore any treatment effect should be more evident in the subgroup LOS >24 hours.
# LOS was calculated in hours from the first inhalation treatment to “ready for discharge” defined as physician decision to discharge.
# Time to achieve room-air SpO2 of ≥92% (improvement in oxygenation) leading to discharge was calculated from first treatment to the first time of room-air SpO2 of ≥92% sustained until discharge. Time to clinical score of ≤5 was calculated from the first inhalation to the first time the subject reached a clinical score of ≤5.
# The following statistical tests were used in the analysis of the data presented in this study: 1. The Paired T-Test was applied for testing the statistical significance of the changes from baseline for quantitative variables within each study group; 2. The two-sample T-test or Non-parametric Wilcoxon Rank Sum test or median tests were used as appropriate for analyzing differences between the study groups in quantitative parameters; 3. The Chi-square test was applied for testing the statistical significance of the differences in frequency of categorical variables between the study groups; 4. Survival analysis using a Kaplan-Meier survival function curve was applied for testing the statistical significance of the difference between the study groups in the following endpoints: LOS, from first inhalation to ready to discharge, time to achieve 92% saturation leading to discharge, and time to achieve clinical score ≤5. […]
# S. aureus (ATCC 25923) = settings: 200 ppm gNO; cited from earlier work
# [2] = test system: P. aeruginosa (ATCC 27853); settings: 200 ppm gNO; cited from earlier work
# MRSA = settings: 200 ppm gNO; cited from earlier work
# S. aureus (Clinical) = settings: 200 ppm gNO; cited from earlier work
# Klebsiella sp. #1 = settings: 200 ppm gNO; cited from earlier work
# Klebsiella sp.#2 = settings: 200 ppm gNO; cited from earlier work
# S. maltophilia = settings: 200 ppm gNO; cited from earlier work
# Acinetobacter sp. = settings: 200 ppm gNO; cited from earlier work
# E. coli = settings: 200 ppm gNO; cited from earlier work
# Group B Streptococci = settings: 200 ppm gNO; cited from earlier work
# Mycobacterium smegmatis = settings: 200 ppm gNO; cited from earlier work
# [3] = test system: bacteria at 10E5 CFU/ml isolated from patients; settings: 200 ppm gNO, cited from earlier work
# healthy individuals = settings: 160 ppm NO for 30 minutes, 5 times daily, 5 consecutive days; cited from earlier work
# [4] = previous in vitro and animal studies; cited from earlier work
# [5] = average of the 13 bacteria above the line
compound,measurement,setting,value
"[N]=O [NO, nitric oxide]",Time to first 92% O2 saturation sustained to discharge,"[1]; ITT (N=42), NO group, P=0.517 vs control",35.50 ± 33.73 h
same,Mean time to reach clinical score of ≤5,"[1]; ITT (N=43), NO group, P=0.621 vs control",32.83 ± 30.61 h
same,Median LOS,"[1]; ITT including the 16 infants discharged within <24 hours, P=0.65 vs control",40 h
same,"Length of stay (LOS), mean±SD","[1]; ITT, 43 subjects, NO group, P=0.86 vs control",43.3 ± 32.95 h
same,"Hazard ratio (HR), time to first sustained 92% O2 saturation","[1]; Kaplan Meier, PP, LOS >24 hours, 95% CI=0.139, 0.921, P=0.028",0.358
same,"Hazard ratio (HR), time to clinical score ≤5","[1]; Kaplan-Meier, ITT, LOS >24 hours, 95% CI: 0.161, 0.949, log rank P=0.033",0.391
same,"Median LOS, post-hoc subgroup","[1]; post-hoc ITT, LOS >24 hours subgroup, P=0.014 vs control",41.92 h
same,"Clinical benefit of NO versus standard treatment (LOS, time to SpO2 ≥92%, time to clinical score ≤5)","[1]; post-hoc, subgroup LOS >24 hours",statistically significant clinical benefits; also recorded: statistically significant in favor of the NO group; also recorded: statistically significant treatment benefit
same,+2.5 Log10,S. aureus (ATCC 25923),3.3 hours
same,LD100,S. aureus (ATCC 25923),4 h
same,Latent Period,S. aureus (ATCC 25923),3 h
same,+2.5 Log10,[2],2.1 hours
same,LD100,[2],3 h
same,Latent Period,[2],1 h
same,+2.5 Log10,MRSA,4.2 hours
same,LD100,MRSA,5 h
same,Latent Period,MRSA,3 h
same,+2.5 Log10,S. aureus (Clinical),3.7 hours
same,LD100,S. aureus (Clinical),4 h
same,Latent Period,S. aureus (Clinical),3 h
same,+2.5 Log10,Klebsiella sp. #1,3.5 hours
same,LD100,Klebsiella sp. #1,6 h
same,Latent Period,Klebsiella sp. #1,3 h
same,+2.5 Log10,Klebsiella sp.#2,4.1 hours
same,LD100,Klebsiella sp.#2,5 h
same,Latent Period,Klebsiella sp.#2,2 h
same,+2.5 Log10,S. maltophilia,2.8 hours
same,LD100,S. maltophilia,4 h
same,Latent Period,S. maltophilia,2 h
same,+2.5 Log10,Acinetobacter sp.,5 hours
same,LD100,Acinetobacter sp.,6 h
same,Latent Period,Acinetobacter sp.,4 h
same,+2.5 Log10,E. coli,4.2 hours
same,LD100,E. coli,5 h
same,Latent Period,E. coli,3 h
same,+2.5 Log10,Group B Streptococci,1.5 hours
same,LD100,Group B Streptococci,2 h
same,Latent Period,Group B Streptococci,1 h
same,+2.5 Log10,Mycobacterium smegmatis,9.2 hours
same,LD100,Mycobacterium smegmatis,10 h
same,Latent Period,Mycobacterium smegmatis,7 h
same,Reduction in CFU/ml for each gNO-exposed organism,[3]; 10E5 CFU/ml,4-6 Log10 units
same,"+2.5 Log10, Average",[3]; [5],3.82 hours
same,"LD100, Average",[3]; [5],4.77 h
same,"Latent Period, Average",[3]; [5],2.77 h
same,Safety and tolerability in healthy individuals,healthy individuals,safe and well tolerated
same,NO exposure needed before an anti-microbial effect was seen,[4],at least 2.5 hours
